Our source for the IC50 values is ChEMBL document CHEMBL5726262, “BET protein-inhibiting 5-aryltriazoleazepines” (2017).

Structures are written as SMILES.

The assay addresses Bromodomain-containing protein 4 (Homo sapiens, UniProt O60885). Description: Time-Resolved Fluorescence Resonance energy Transfer (TR-FRET) Assay: For this purpose, a time-resolved fluorescence resonance energy transfer (TR-FRET) assay was used, which measures the binding between N-terminally His6-tagged BRD4(1) (amino acids 44-168) and a synthetic acetylated histone H4 (Ac-H4) peptide with sequence GRGK(Ac)GGK(Ac)GLGK(Ac)GGAK(Ac)RHGSGSK-biotin. The recombinant BRD4 protein produced in-house according to Filippakopoulos et al., Cell, 2012, 149:214-231 was expressed in E. coli and purified by means of (Ni-NTA) affinity and (Sephadex G-75) size exclusion chromatography. The Ac-H4 peptide can be purchased, for example, from Biosyntan (Berlin, Germany).In the assay, typically 11 different concentrations of each substance (0.1 nM, 0.33 nM, 1.1 nM, 3.8 nM, 13 nM, 44 nM, 0.15 μM, 0.51 μM, 1.7 μM, 5.9 μM and 20 μM) were analysed as duplicates on the same microtitre plate. For this purpose, 100-fold concentrated solutions in DMSO were prepared by serial dilutions (1:3.4) of a 2 mM stock solution into a clear, 384-well microtitre plate (Greiner Bio-One, Frickenhausen, Germany). From this, 50 nl were transferred into a black test plate (Greiner Bio-One, Frickenhausen, Germany). […].

Regarding `Cc1nnc2n1-c1ccc(OC(F)(F)F)cc1C(c1ccc(Cl)cc1)=C[C@H]2CC(=O)N1CC2(COC2)C1`, the IC50 was 220 nM.
